Measurements taken from ChEMBL document CHEMBL1155005, “Ligands to the (IRAP)/AT4 receptor encompassing a 4-hydroxydiphenylmethane scaffold replacing Tyr2” (Bioorg Med Chem, 2008).

Molecular target: Aminopeptidase N (Homo sapiens, UniProt P15144)
Test: Inhibition of human recombinant APN expressed in HEK293 cells
Format: cell-based

Sequence of Aminopeptidase N (P15144 whole entry): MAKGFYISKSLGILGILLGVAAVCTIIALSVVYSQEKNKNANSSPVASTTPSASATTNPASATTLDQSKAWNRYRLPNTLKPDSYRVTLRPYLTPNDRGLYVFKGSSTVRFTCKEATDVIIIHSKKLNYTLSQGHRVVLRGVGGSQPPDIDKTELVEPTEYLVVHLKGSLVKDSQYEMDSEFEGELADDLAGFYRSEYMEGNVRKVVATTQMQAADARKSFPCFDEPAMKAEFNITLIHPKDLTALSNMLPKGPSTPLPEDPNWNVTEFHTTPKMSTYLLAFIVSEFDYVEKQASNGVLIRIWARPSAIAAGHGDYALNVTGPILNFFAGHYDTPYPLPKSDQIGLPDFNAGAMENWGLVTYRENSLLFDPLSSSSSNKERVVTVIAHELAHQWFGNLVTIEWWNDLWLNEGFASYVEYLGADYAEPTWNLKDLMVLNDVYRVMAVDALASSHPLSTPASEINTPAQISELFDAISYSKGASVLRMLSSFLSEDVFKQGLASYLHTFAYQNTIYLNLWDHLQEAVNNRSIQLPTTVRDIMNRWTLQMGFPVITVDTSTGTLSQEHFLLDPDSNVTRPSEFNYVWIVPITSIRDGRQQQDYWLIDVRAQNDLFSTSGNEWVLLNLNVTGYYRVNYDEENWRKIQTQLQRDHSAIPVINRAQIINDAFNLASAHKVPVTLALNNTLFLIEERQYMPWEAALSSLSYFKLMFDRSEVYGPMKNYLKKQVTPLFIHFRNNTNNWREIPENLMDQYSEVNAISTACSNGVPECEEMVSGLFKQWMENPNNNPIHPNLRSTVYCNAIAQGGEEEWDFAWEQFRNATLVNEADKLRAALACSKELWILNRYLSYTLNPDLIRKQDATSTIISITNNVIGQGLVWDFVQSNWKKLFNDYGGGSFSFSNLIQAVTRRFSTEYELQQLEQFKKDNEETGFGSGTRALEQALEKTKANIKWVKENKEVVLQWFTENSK

Ki [µM] | Compound
> 100 | CC[C@@H](C)[C@H](NC(=O)c1cc(N)cc(Cc2ccc(O)cc2)c1)C(=O)NCc1ccccc1CC(=O)O
> 100 | Nc1cc(Cc2ccc(O)cc2)cc(C(=O)NCc2ccccc2CC(=O)O)c1
